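Assay format: 96-well plates, 48-hour exposure. Abbreviation: GI50, concentration required for 50% inhibition of growth. Definition used: TGI = concentration required for complete inhibition of growth.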 Where a SMILES comes first, the peptide text is derived from it. [ ]: non-standard residue; d: D form.
How the values were obtained:
Assay in all cases: inhibition of tumour cell growth, NCI panel, 48 h
A549 NSCLC = tested on: A549 NSCLC
SK-MEL-28 melanoma = tested on: SK-MEL-28 melanoma
OVCAR-4 ovarian = tested on: OVCAR-4 ovarian
RXF 393 renal = tested on: RXF 393 renal
OVCAR-3 ovarian = tested on: OVCAR-3 ovarian
U251 CNS = tested on: U251 CNS
CAKI-1 renal = tested on: CAKI-1 renal
DU-145 prostate = tested on: DU-145 prostate
KM12 colon = tested on: KM12 colon
SK-MEL-2 melanoma = tested on: SK-MEL-2 melanoma

Structure (SMILES)	TGI (A549 NSCLC) [µM]	TGI (SK-MEL-28 melanoma) [µM]	TGI (OVCAR-4 ovarian) [µM]	TGI (RXF 393 renal) [µM]	TGI (OVCAR-3 ovarian) [µM]	TGI (U251 CNS) [µM]	TGI (CAKI-1 renal) [µM]	TGI (DU-145 prostate) [µM]	TGI (KM12 colon) [µM]	TGI (SK-MEL-2 melanoma) [µM]	GI50 (SK-MEL-28 melanoma) [µM]	GI50 (OVCAR-4 ovarian) [µM]	GI50 (RXF 393 renal) [µM]	GI50 (OVCAR-3 ovarian) [µM]	GI50 (CAKI-1 renal) [µM]	GI50 (DU-145 prostate) [µM]	GI50 (KM12 colon) [µM]	GI50 (SK-MEL-2 melanoma) [µM]
CCn1c(CCCc2nc3c([nH]2)c(=O)n(C)c(=O)n3C)nc2c1c(=O)n(C)c(=O)n2C	> 100	> 100	> 100	> 100	> 100	> 100	> 100	> 100	> 100	–	–	–	–	–	–	–	–	–
CCCCCCc1ccc(CCCCCCCC(=O)O)o1	> 100	> 100	> 100	–	> 100	–	> 100	> 100	> 100	> 100	–	–	–	–	–	–	–	–
N=c1ncn(C/C=C/c2ccccc2)c2nc[nH]c12	> 100	> 100	> 100	> 100	> 100	> 100	> 100	> 100	> 100	> 100	–	–	–	–	–	–	–	–
Cc1ccc(C)n1-c1ccccc1C1C=Cn2c(=O)oc3c(OC(C)C)c(OC(C)C)c(O)c1c32 (configuration not stated)	> 100	> 100	> 100	32.7	> 100	> 100	> 100	> 100	> 100	78.2	–	–	–	–	–	–	–	–
O=[N+]([O-])c1c(O)c2nonc2c2nn(-c3ccccc3)nc12	> 100	> 100	> 100	–	> 100	> 100	> 100	> 100	> 100	> 100	–	–	–	–	–	–	–	–
O=C(CC(=O)N1N=C(c2ccccc2)C(N=Nc2ccc(S(=O)(=O)CCOS(=O)(=O)O)cc2)C1=O)Nc1ccc(Cl)cc1 (configuration not stated)	> 100	> 100	–	> 100	> 100	> 100	> 100	> 100	> 100	> 100	–	–	–	–	–	–	–	–
Cc1cc2nc3c(C#N)c(C)c(CCCl)c(Cl)n3c2cc1C	17.7	15.5	16.6	–	3.56	> 60.9	9.43	13.6	14.4	3.99	–	–	–	–	–	–	–	–
Cc1ccc(/C=c2\c(=O)[nH]c3nc4ccccc4c(=O)n23)cc1	> 100	> 100	> 100	98.7	> 100	38	> 100	> 100	> 100	> 100	–	–	–	–	–	–	–	–
CCCN=C1NC(C)=CSC(Nc2ccccc2)=C1C#N	> 100	> 100	> 100	> 100	> 100	> 100	> 100	> 100	> 100	> 100	–	–	–	–	–	–	–	–
O=C1CCCC1CC(CN1CCOCC1)Sc1nnnn1-c1ccccc1 (configuration not stated)	> 100	> 100	> 100	> 100	> 100	> 100	79.1	> 100	> 100	> 100	–	–	–	–	–	–	–	–
Cc1ccc2sc3c(NCCCN)nc4ccccc4c3c(=O)c2c1	–	3.28	4.69	3.02	3.32	–	3.25	3.39	3.51	4.66	1.78	2.16	1.52	1.82	1.67	1.87	1.9	2.18
COc1cc2nc(-c3cccs3)nc(N3CCN(c4ccccc4)CC3)c2cc1OC	> 100	> 100	> 100	–	> 100	> 100	> 100	> 100	> 100	> 100	–	–	–	–	–	–	–	–
O/N=C1\C/C(=N\O)c2c(Br)sc(Br)c21	> 100	63.2	> 100	–	> 100	> 100	60	> 100	> 100	> 100	–	–	–	–	–	–	–	–
O=c1c(O)c(-c2ccccc2)oc2c(CP(=O)(O)O)cccc12	> 100	–	> 100	> 100	> 100	> 100	> 100	> 100	–	> 100	–	–	–	–	–	–	–	–
Cc1nc(N)c(N2CCN(S(=O)(=O)N(Cc3ccccc3)Cc3ccccc3)CC2)c(=O)[nH]1	> 100	34.1	93.6	–	73.8	36.8	–	52.7	> 100	> 100	–	–	–	–	–	–	–	–
COc1ccc(/C(=N/O)c2ccccc2C2=Nc3ccccc3C(NCc3ccccc3)O2)cc1C (configuration not stated)	> 100	> 100	–	> 100	> 100	> 100	> 100	> 100	> 100	> 100	–	–	–	–	–	–	–	–
O=C1Sc2ccccc2C(=O)N2CCSC12 (configuration not stated)	–	> 100	–	> 100	> 100	> 100	–	–	> 100	> 100	–	–	–	–	–	–	–	–
COc1cc(C(c2ccccc2)N2C(=O)CC[C@H]2C(=O)O)cc(OC)c1OC (some centres not stated)	> 100	> 100	> 100	–	> 100	> 100	> 100	> 100	> 100	> 100	–	–	–	–	–	–	–	–
CCOC(=O)c1nc2ccccc2nc1Nc1ccc(C(=O)OC)s1	> 100	> 100	> 100	–	> 100	> 100	> 100	> 100	> 100	> 100	–	–	–	–	–	–	–	–
CC1CN(c2cc3c(cc2F)c(=O)c(C(=O)O)cn3-c2ccc(N3CCN(C)CC3)cn2)CC(C)N1 (configuration not stated)	> 100	> 100	> 100	> 100	> 100	> 100	> 100	> 100	> 100	–	–	–	–	–	–	–	–	–
COC(=O)/C=C1\C(CO[Si](C)(C)C(C)(C)C)OC(n2cc(C)c(=O)n(C)c2=O)C1O[Si](C)(C)C(C)(C)C (configuration not stated)	> 100	> 100	–	–	> 100	> 100	–	> 100	> 100	> 100	–	–	–	–	–	–	–	–
OCc1ccc2c(c1)CC1(Cc3ccccc3C1)C2	71.2	49.6	> 100	36.2	68.5	–	50.5	> 100	57.3	–	–	–	–	–	–	–	–	–

Structure (SMILES)	TGI (A549 NSCLC) [µM]	TGI (SK-MEL-28 melanoma) [µM]	TGI (OVCAR-4 ovarian) [µM]	TGI (RXF 393 renal) [µM]	TGI (OVCAR-3 ovarian) [µM]	TGI (U251 CNS) [µM]	TGI (CAKI-1 renal) [µM]	TGI (DU-145 prostate) [µM]	TGI (KM12 colon) [µM]	TGI (SK-MEL-2 melanoma) [µM]	GI50 (SK-MEL-28 melanoma) [µM]	GI50 (OVCAR-4 ovarian) [µM]	GI50 (RXF 393 renal) [µM]	GI50 (OVCAR-3 ovarian) [µM]	GI50 (CAKI-1 renal) [µM]	GI50 (DU-145 prostate) [µM]	GI50 (KM12 colon) [µM]	GI50 (SK-MEL-2 melanoma) [µM]
Cc1cc(C)[n+]2c(c1)C=CC2	> 100	> 100	> 100	25.1	38.6	> 100	> 100	–	> 100	93.8	–	–	–	–	–	–	–	–
O=S(=O)(O)c1cc(S(=O)(=O)O)c2cc(N=Nc3ccc(N=Nc4ccc(/C=C/c5ccc(N=[N+]([O-])c6ccc(/C=C/c7ccc(N=Nc8ccc(N=Nc9ccc%10cc(S(=O)(=O)O)cc(S(=O)(=O)O)c%10c9)cc8)cc7S(=O)(=O)O)c(S(=O)(=O)O)c6)cc5S(=O)(=O)O)c(S(=O)(=O)O)c4)cc3)ccc2c1	> 100	> 100	> 100	> 78.7	> 31.6	> 100	–	–	> 100	> 100	–	–	–	–	–	–	–	–
O=C1C(c2ccccc2)=C(c2ccccc2)C1(Cl)Cl	27.4	10.9	11.4	–	7.34	7.68	6.15	24.5	19.2	8.7	–	–	–	–	–	–	–	–
Cc1cc(N(CCC#N)CCC#N)ccc1/C(N=Nc1ccc(C(=O)O)cc1)=N\NC(=O)c1ccccc1	> 100	–	> 100	> 100	–	> 100	> 100	> 100	> 100	> 100	–	–	–	–	–	–	–	–
Cc1cnc2c(c1)C(=O)N(c1ccc(Oc3ccccc3)cc1)S2(=O)=O	> 100	> 100	> 100	–	> 100	> 100	> 100	> 100	> 100	> 100	–	–	–	–	–	–	–	–
CCOP(=O)(OCC)/C(=C/n1c(=S)[nH]c2ccccc21)C(=O)OC	> 100	> 100	> 100	> 100	–	> 100	> 100	> 100	> 100	> 100	–	–	–	–	–	–	–	–
N#CC1=C(O)NC(O)=C(C#N)C1c1c(Cl)cccc1Cl	> 100	> 100	> 100	28.7	> 100	> 100	> 100	–	71.5	52.3	–	–	–	–	–	–	–	–
CC(C)C[C@H](NC(=O)[C@H](CC(C)C)NC(=O)[C@@H](Cc1c[nH]c2ccccc12)NC(=O)[C@H](Cc1ccccc1)NC(=O)[C@@H](Cc1c[nH]c2ccccc12)NC(=O)[C@H](CCC(N)=O)NC(=O)[C@@H](CCC(N)=O)NC(=O)[C@@H]1CCCN1C(=O)[C@@H](CCCCN)NC(=O)[C@H]1CCCN1C(=O)[C@H](N)CCCN=C(N)N)C(N)=O (H-[dR][dP][dK]P[dQ]Q[dW]F[dW]LL-NH2)	> 100	> 100	> 100	> 100	> 100	> 93.2	–	–	> 100	> 100	–	–	–	–	–	–	–	–
CC(C)OC1=C(CC2(C)OCCO2)C(=O)C12OCCO2	> 100	> 100	> 100	–	> 100	> 100	> 100	> 100	> 100	> 100	–	–	–	–	–	–	–	–
O=c1c2cccnc2oc2c(Cl)cc(-c3nn[nH]n3)cc12	> 100	> 100	> 100	> 100	> 100	–	> 100	> 100	> 100	> 100	–	–	–	–	–	–	–	–
COC(=O)/C1=C/C=C\C[C@@]2(C)CC(c3ccoc3)OC(=O)[C@@H]2CC[C@H]1C (some centres not stated)	> 25	> 25	> 25	> 25	> 25	> 25	> 25	–	> 25	> 25	–	–	–	–	–	–	–	–
CC(C)(C)OC(=O)N1C(=O)C2CCCC21 (configuration not stated)	> 100	> 100	> 100	> 100	> 100	> 100	–	> 100	> 100	> 100	–	–	–	–	–	–	–	–
COCC(C#N)NC1CC(OC2CC(O)(C(=O)CO)Cc3c(O)c4c(c(O)c32)C(=O)c2c(OC)cccc2C4=O)OC(C)C1O (configuration not stated)	–	0.527	2.08	0.497	3	0.86	0.285	–	0.77	0.316	–	–	–	–	–	–	–	–
CC(=O)NC1C(OCc2ccccc2)OC(CO)C(O)C1OC(C)C(=O)NC(C(=O)NC(CCC(=O)NCCCNc1ccc([N+](=O)[O-])c2[nH]c3ccccc3c(=O)c12)C(N)=O)C(C)C (configuration not stated)	> 100	> 100	> 100	–	> 100	> 100	> 100	> 100	> 100	> 100	–	–	–	–	–	–	–	–
CCOC(=O)Cc1[nH]c(C(=O)c2ccccc2)cc1C(=O)c1ccccc1	66.8	> 10	59.8	> 100	> 100	> 100	–	> 10	> 100	> 100	–	–	–	–	–	–	–	–
COc1cc2c3c(n(C)c(=O)c2cc1OC)-c1cc2c(cc1/C3=C\CCCCl)OCO2	> 100	> 100	> 100	26.8	–	> 100	> 100	> 100	70.1	98.9	–	–	–	–	–	35.9	–	–
COC(=O)N[C@@H]1C[C@H]2CC[C@]1(O[Si](C(C)C)(C(C)C)C(C)C)C(=O)C2	55.7	36.8	33.8	–	39.7	–	> 100	> 100	52.1	35.3	–	–	–	–	–	–	–	–
Clc1ccc(C2SCc3nc4ccccc4n32)cc1 (configuration not stated)	–	68.1	–	–	> 100	66.2	73.9	–	–	33	–	–	–	–	–	–	–	–
CCN(CC)/N=C\c1c2ccccc2cc2ccccc12	> 100	> 100	> 100	57.3	–	> 100	> 100	> 100	> 100	61.9	–	–	–	–	–	–	–	–
[N-]=[N+]=Nc1cc(=O)[nH]c2ccccc12	> 100	> 100	> 100	> 100	> 100	> 100	> 100	–	> 100	> 100	–	–	–	–	–	–	–	–
COc1cc2nc(-c3cccs3)nc(Nc3ccccc3C(=O)NN)c2cc1OC	> 100	> 100	> 100	–	> 100	> 100	> 100	> 100	> 100	> 100	–	–	–	–	–	–	–	–

From PubChem BioAssay (NCI)
